In BindingDB's records for doi:10.1016/0028-3908(94)90059-0 (University of Alberta, 1994):
Values joined by “and” are separate entries in the source; they are usually repeats but may differ in a detail not shown here. Identical values can stand only once.

What was measured:
[1] = target: T1, 5-hydroxytryptamine receptor 3A (Mus musculus, UniProt P23979)
T1 sequence (P23979 whole entry): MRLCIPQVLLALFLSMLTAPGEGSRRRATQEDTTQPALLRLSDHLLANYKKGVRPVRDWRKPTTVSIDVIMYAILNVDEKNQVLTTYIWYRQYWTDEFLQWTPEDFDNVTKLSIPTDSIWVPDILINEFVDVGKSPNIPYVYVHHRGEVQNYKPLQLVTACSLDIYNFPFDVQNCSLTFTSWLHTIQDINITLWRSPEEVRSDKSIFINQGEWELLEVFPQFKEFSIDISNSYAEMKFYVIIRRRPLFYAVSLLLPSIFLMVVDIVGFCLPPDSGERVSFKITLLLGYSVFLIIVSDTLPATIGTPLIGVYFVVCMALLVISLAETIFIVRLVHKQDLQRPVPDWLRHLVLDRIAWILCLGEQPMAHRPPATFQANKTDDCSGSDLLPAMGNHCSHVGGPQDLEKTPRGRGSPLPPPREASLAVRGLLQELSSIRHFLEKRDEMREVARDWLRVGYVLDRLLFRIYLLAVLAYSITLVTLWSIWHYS

[2] = target: 5-hydroxytryptamine receptor 1D (Canis lupus familiaris, UniProt P11614)
Sequence of 5-hydroxytryptamine receptor 1D (Canis lupus familiaris, UniProt P11614) (P11614 whole entry): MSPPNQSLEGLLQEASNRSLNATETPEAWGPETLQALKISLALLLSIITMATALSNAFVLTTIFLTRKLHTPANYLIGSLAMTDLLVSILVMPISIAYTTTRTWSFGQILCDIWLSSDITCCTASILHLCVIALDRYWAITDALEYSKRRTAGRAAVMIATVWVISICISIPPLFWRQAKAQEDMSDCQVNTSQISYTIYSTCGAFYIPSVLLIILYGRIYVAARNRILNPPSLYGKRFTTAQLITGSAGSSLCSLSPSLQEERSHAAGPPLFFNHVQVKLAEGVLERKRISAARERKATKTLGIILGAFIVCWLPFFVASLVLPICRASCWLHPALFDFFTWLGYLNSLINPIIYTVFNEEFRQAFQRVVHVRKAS

[3] = target: 5-hydroxytryptamine receptor 2B (Rattus norvegicus, UniProt P30994)
Sequence of 5-hydroxytryptamine receptor 2B (Rattus norvegicus, UniProt P30994) (P30994 whole entry): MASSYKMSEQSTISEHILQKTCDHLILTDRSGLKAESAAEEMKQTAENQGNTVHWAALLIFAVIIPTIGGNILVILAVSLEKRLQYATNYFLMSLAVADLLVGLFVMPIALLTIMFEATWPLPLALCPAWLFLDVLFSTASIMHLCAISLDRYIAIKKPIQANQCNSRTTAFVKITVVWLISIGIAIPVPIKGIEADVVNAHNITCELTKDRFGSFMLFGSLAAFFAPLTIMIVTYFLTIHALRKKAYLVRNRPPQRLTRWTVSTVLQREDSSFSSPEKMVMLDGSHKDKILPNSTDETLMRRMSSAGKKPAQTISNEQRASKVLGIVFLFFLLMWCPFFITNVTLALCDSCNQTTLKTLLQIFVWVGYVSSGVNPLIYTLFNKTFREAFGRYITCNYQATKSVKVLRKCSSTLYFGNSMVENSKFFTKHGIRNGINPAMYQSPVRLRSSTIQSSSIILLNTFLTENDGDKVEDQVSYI

[4] = target: 5-hydroxytryptamine receptor 1D (Homo sapiens, UniProt P28221)
Sequence of 5-hydroxytryptamine receptor 1D (Homo sapiens, UniProt P28221) (P28221 whole entry): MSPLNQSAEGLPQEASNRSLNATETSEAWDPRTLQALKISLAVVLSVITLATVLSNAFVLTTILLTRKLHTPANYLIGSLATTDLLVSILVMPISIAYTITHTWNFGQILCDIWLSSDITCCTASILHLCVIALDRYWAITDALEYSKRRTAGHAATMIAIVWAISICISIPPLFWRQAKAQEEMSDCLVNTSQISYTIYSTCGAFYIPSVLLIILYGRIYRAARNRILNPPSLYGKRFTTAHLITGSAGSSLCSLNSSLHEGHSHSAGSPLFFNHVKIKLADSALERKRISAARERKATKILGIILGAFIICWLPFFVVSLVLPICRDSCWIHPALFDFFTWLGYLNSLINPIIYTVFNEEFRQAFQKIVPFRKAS

[5] = target: 5-hydroxytryptamine receptor 1B (Mus musculus, UniProt P28334)
Sequence of 5-hydroxytryptamine receptor 1B (Mus musculus, UniProt P28334) (P28334 whole entry): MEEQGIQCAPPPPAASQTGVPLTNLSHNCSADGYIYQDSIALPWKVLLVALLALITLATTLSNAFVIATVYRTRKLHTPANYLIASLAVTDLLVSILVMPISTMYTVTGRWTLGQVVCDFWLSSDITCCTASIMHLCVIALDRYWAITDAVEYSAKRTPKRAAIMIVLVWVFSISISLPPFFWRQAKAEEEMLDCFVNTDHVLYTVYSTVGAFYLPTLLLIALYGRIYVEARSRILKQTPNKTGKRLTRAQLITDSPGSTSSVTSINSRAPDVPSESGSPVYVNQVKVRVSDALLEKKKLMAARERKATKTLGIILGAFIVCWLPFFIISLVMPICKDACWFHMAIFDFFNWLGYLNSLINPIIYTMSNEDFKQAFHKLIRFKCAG

[6] = target: T2, 5-hydroxytryptamine receptor 1F (Mus musculus, UniProt Q02284)
T2 sequence (Q02284 whole entry): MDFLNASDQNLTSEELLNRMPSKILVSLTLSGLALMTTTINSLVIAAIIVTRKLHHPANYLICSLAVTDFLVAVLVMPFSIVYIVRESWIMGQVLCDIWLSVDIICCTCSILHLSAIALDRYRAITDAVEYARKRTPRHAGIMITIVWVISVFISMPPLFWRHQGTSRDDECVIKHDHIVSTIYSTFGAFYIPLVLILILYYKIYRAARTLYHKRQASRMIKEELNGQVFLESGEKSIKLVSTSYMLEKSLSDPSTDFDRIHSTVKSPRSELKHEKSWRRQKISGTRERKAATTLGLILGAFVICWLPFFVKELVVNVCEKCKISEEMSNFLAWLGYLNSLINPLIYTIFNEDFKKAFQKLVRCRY

[7] = target: T3, 5-hydroxytryptamine receptor 1F (Rattus norvegicus, UniProt P30940)
T3 sequence (P30940 whole entry): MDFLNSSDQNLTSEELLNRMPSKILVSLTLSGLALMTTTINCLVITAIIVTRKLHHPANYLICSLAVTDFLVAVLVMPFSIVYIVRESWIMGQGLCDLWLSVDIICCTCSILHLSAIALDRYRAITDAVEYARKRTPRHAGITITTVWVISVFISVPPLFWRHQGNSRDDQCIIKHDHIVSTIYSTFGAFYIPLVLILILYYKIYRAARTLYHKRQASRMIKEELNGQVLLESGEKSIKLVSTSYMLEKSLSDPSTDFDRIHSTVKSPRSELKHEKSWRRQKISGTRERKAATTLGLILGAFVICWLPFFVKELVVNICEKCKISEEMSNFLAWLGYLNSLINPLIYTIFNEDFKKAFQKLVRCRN

[8] = target: 5-hydroxytryptamine receptor 1D (Rattus norvegicus, UniProt P28565)
Sequence of 5-hydroxytryptamine receptor 1D (Rattus norvegicus, UniProt P28565) (P28565 whole entry): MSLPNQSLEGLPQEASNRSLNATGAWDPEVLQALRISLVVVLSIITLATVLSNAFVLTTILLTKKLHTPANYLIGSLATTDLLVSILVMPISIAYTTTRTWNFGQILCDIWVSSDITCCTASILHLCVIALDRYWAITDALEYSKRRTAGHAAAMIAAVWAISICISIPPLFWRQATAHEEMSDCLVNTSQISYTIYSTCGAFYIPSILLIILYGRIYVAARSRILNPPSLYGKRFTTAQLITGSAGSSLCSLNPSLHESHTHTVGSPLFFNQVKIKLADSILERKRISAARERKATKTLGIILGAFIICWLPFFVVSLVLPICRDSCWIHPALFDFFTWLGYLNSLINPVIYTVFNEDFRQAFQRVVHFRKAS

[9] = target: 5-hydroxytryptamine receptor 1B (Rattus norvegicus, UniProt P28564)
Sequence of 5-hydroxytryptamine receptor 1B (Rattus norvegicus, UniProt P28564) (P28564 whole entry): as the sequence (P28334 whole entry) above, with A15T, T23A, G33D, E152D, M192V, A270V, D272E, A385T counted along it

[10] = target: 5-hydroxytryptamine receptor 2B (Mus musculus, UniProt Q02152)
Sequence of 5-hydroxytryptamine receptor 2B (Mus musculus, UniProt Q02152) (Q02152 whole entry): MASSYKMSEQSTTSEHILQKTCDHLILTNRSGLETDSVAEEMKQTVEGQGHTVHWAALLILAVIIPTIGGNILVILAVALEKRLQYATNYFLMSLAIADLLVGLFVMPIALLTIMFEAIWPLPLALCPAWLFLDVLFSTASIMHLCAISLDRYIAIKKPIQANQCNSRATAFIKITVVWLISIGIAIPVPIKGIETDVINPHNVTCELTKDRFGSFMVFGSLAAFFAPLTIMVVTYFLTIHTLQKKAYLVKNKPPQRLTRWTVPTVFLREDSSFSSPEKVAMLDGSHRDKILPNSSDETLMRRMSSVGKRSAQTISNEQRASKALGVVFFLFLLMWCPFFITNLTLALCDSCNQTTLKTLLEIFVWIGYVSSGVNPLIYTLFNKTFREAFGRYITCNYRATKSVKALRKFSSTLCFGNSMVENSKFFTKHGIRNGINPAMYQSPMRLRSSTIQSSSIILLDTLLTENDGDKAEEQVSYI

[11] = target: 5-hydroxytryptamine receptor 1B (Homo sapiens, UniProt P28222)
Sequence of 5-hydroxytryptamine receptor 1B (Homo sapiens, UniProt P28222) (P28222 whole entry): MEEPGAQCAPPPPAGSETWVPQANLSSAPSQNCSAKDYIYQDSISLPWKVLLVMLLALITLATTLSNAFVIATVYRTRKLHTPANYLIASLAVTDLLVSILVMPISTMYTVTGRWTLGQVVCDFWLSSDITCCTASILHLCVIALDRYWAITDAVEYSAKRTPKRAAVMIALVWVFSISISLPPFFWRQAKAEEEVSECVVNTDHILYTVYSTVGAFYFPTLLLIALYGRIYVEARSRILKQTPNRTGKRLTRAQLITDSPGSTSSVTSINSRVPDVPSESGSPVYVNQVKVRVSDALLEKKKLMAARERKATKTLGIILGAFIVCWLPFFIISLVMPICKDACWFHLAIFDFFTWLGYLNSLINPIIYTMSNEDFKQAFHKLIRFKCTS

[12] = target: 5-hydroxytryptamine receptor 1E (Homo sapiens, UniProt P28566)
Sequence of 5-hydroxytryptamine receptor 1E (P28566 whole entry): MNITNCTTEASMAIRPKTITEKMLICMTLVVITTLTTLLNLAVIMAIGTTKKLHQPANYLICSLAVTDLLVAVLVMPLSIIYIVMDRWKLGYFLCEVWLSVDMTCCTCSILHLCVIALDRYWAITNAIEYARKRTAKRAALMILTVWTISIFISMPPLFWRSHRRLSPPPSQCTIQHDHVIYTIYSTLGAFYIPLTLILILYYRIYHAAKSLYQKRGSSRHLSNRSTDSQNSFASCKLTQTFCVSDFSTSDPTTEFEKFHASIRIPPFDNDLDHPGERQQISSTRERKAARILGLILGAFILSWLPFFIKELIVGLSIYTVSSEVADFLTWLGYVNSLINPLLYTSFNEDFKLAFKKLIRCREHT

[13] = target: 5-hydroxytryptamine receptor 5A (Mus musculus, UniProt P30966)
Sequence of 5-hydroxytryptamine receptor 5A (P30966 whole entry): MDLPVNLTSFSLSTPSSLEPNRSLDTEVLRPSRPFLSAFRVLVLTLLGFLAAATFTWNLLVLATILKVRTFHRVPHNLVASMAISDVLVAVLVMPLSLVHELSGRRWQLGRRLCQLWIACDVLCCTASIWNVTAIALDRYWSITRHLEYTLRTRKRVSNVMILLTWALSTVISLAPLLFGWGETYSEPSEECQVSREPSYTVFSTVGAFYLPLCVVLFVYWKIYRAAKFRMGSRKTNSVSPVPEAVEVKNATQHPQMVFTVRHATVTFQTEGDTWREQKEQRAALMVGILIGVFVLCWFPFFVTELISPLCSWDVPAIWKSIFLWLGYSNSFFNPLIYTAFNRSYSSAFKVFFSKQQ

[14] = target: 5-hydroxytryptamine receptor 7 (Mus musculus, UniProt P32304)
Sequence of 5-hydroxytryptamine receptor 7 (P32304 whole entry): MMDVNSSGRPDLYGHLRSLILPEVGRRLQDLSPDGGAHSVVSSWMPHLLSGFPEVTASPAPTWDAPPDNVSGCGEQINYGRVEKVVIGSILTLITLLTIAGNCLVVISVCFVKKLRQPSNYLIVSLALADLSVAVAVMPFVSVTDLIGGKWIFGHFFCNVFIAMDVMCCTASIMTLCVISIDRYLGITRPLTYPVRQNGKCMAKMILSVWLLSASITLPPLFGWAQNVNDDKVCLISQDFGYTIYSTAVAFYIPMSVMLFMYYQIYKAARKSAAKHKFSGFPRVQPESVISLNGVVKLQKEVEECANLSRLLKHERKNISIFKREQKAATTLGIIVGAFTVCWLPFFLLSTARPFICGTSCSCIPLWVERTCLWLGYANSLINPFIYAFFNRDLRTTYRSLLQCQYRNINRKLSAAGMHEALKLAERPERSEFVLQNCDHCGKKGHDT

For `COc1cc2c3cc1Oc1cc(ccc1O)C[C@@H]1c4c(cc(OC)c(O)c4Oc4ccc(cc4)C[C@@H]3N(C)CC2)CC[N+]1(C)C` [Tubocurarine,d], the Ki [1] was 8.7 nM.

Work on `COc1ccc2[nH]cc(CCN(C)C)c2c1` [3-(2-DIMETHYLAMINOETHYL)-5-METHOXYINDOLE] yielded a Ki [2] of 5.12 nM.

Molecule `NCCc1c[nH]c2ccc(Br)cc12` has a Ki [3] of 38.9 nM.

`COC(=O)[C@@H]1[C@H]2C[C@H]3c4[nH]c5ccccc5c4CCN3C[C@@H]2CC[C@@H]1O` [yohimbic acid methyl ester] was tested, and the Ki [3] was 58.9 nM and 35.5 nM and 107 nM and 53.7 nM, the Ki [2] was 5.24 nM and the Ki [4] was 15.8 nM and 47.9 nM. For the same molecule, the Ki [5] was over 10000 nM, the Ki [6] was 63.1 nM and the Ki [7] was 562 nM. The Ki [8] was 30.9 nM.

For `CC(C)n1cc2c3c(cccc31)C1CC(C(=O)NC3CCCCC3)CN(C)C1C2` (stereo not drawn) [NSC_60740], the Ki [3] was 10.7 nM.

With `Cc1cc(C(C)(C)C)c(O)c(C)c1CC1=NCCN1` [SMR000059324] the Ki [9] was 2.51 nM and 0.81 nM and the Ki [8] was 1.28 nM.

Molecule `CN(C)CCc1c[nH]c2ccc(O)cc12` [3-[2-(dimethylamino)ethyl]indol-5-ol] has a Ki [6] of 31.6 nM.

In the case of `Cc1[nH]c2ccc(O)cc2c1CCN`, the Ki [3] is reported as 316 nM, the Ki [10] is reported as 6610 nM and the Ki [11] is reported as 851 nM and 513 nM.

In the case of `CNS(=O)(=O)Cc1ccc2[nH]cc(CCN(C)C)c2c1` [Sumax], the Ki [12] is reported as 2340 nM and 2090 nM, the Ki [13] is reported as over 10000 nM and the Ki [6] is reported as 79.4 nM.

Work on `CN1C2CCC1CC(OC(=O)c1cc(Cl)cc(Cl)c1)C2` (stereo not drawn) [MDL 72222] yielded a Ki [1] of 87.1 nM.

`CCCN(CCC)C1CCc2cccc(O)c2C1` (stereo not drawn) gave a Ki [14] of 251 nM and a Ki [13] of 1580 nM.

For `COc1ccc2[nH]cc(C3=CCNCC3)c2c1` [5-Methoxy-3-(1,2,3,6-tetrahydro-pyridin-4-yl)-1H-indole(RU-24969)], the Ki [2] was 63.1 nM, the Ki [5] was 10 nM and the Ki [6] was 158 nM. The Ki [9] was 1.58 nM and 2.57 nM and 0.36 nM and the Ki [8] was 46.8 nM.

For `CN(C)CCCN1c2ccccc2Sc2ccc(Cl)cc21` [[3-(2-Chloro-phenothiazin-10-yl)-propyl]-dimethyl-amine(Chlorpromazine)], the Ki [14] was 5010 nM.

For `CCN(CC)C(=O)[C@@H]1C=C2c3cccc4[nH]cc(c34)C[C@H]2N(C)C1` [(4R,7R)-N,N-diethyl-6-methyl-6,11-diazatetracyclo[7.6.1.0^{2,7}.0^{12,16}]hexadeca-1(16),2,9,12,14-pentaene-4-carboxamide], the Ki [2] was 12.6 nM.

For `CN1CC(C(=O)N[C@]2(C)O[C@@]3(O)C4CCCN4C(=O)[C@H](Cc4ccccc4)N3C2=O)CC2c3cccc4[nH]cc(c34)CC21` (stereo partly drawn) [7-Methyl-4,6,6a,7,8,9,10,10a-octahydro-indolo[4,3-fg]quinoline-9-carboxylic acid ((2R,5S,10bS)-5-benzyl-10b-hydroxy-2-methyl-3,6-dioxo-octahydro-oxazolo[3,2-a]pyrrolo[2,1-c]pyrazin-2-yl)-amide], the Ki [3] was 145 nM and the Ki [8] was 0.06 nM.

`CCCN(CCC)CCc1c[nH]c2ccc(C(N)=O)cc12` [NN-DIPROP-5-CT] showed a Ki [4] of 12.9 nM and a Ki [11] of 41.7 nM.

With `CN1CCC(=C2c3ccccc3CCc3sccc32)CC1` [NSC_27400] the Ki [3] was 38.9 nM.

For `CN1C[C@@H](NS(=O)(=O)N(C)C)C[C@@H]2c3cccc4c3c(cn4C)C[C@H]21` [MESULERGINE], the Ki [14] was 25.1 nM and the Ki [11] was 1290 nM and 631 nM.

In the case of `CN1CCN(c2nc3cc(C(F)(F)F)ccc3n3cccc23)CC1` [CAS_109028-10-6], the Ki [8] is reported as 4.89 nM.
